According to patent US7482008B1, “Human T cell reactive feline protein (TRFP) isolated from house dust and uses therefor” (Merck Patent GmbH, priority 1989, dated 2009):

How the values were obtained:
T cell = T cell reactivity of dimeric recombinant chain 1 and alkali treated TRFP; assay type: cell-based
IgE = IgE binding of dimeric recombinant chain 1 and alkali treated TRFP
human IgE [1] = experiment: SDS/PAGE Western immunoblot of human IgE binding, plasma from patient #417; details: patient #417 plasma
Experimental: Western immunoblot analysis of the peptides produced in above was performed. The concentration of all protein samples (e.g., TRFP, recombinant chain 1 of TRFP, recombinant chain 2 of TRFP, peptide XYZ, peptide XZY, peptide YXZ, peptide YZX, peptide ZXY and peptide ZYX) for gel electrophoresis was determined by the BCA method (Pierce Co.). All protein samples were loaded on the gel at 5 μg/lane except TRFP at 10 μg/lane. Protein separation was carried out on a 15% acrylamide gel, and transfer was performed by electroblotting at 1.5 Amps for 1.5 hours onto nitrocellulose paper (Schleicher and Schuell, 0.1 microns) in a Hoeffer apparatus according to the protocol of Towbin, H., T. Stachlin, and J. Gordon, PNAS 76:4350 (1979). Proteins were rinsed in blot solution (25 mM Tris-HCl 7.5, 0.171 M NaCl and 0.5 ml/liter Tween 20). The blot was then blocked for one hour in blocking solution (1% milk in blot solution). Plasma from patient #417, used as a primary antibody source, was diluted in blocking solution to 10% and preabsorbed for 1.5 hours with unused nitrocellulose (2 cm×15 cm). The prepared human plasma was then incubated overnight on an orbital shaker with the protein blot section of interest. Following the first antibody incubation the blot section was washed three times, each wash involved a fifteen minute incubation in blot solution. The second antibody, specific for human IgE (biotinylated goat anti-human IgE, KPL Inc.), was diluted 1:2500 in blot solution and the incubation proceeded for two hours. Excess second antibody was subsequently removed by three 15 minute incubations with blot solution. ^125I Iodinated streptavidin (Amersham) was diluted 1:2500 in blot solution and incubated with blots for 1 hour, at 2 μCi in a 50 ml incubation volume. Blot sections were then washed with blot solution until the detectable radioactivity in the waste solution decreased to background levels. The blot section was then wrapped in saran wrap and exposed to film overnight with a cronex intensifying screen at −80° C.

human IgE [2] = experiment: ELISA of human IgE binding, plasma from patient #669; details: patient #669 plasma
Experimental: Corning assay plates (#25882-96) were coated with 10 μg/ml of each coating antigen (i.e., TRFP, chain 1 (recombinant chain 1 of TRFP), chain 2 (recombinant chain 2 of TRFP), peptide XYZ, peptide XZY, peptide YXZ, peptide YZX, peptide ZXY and peptide ZYX) listed in FIG. 34 at 50 μl/well and incubated overnight at 4° C. The coating antigens were removed and the wells were blocked with 0.5% gelatin in PBS, 200 μl/well for 2 hours at room temperature. Plasma from patient #669 was serially diluted with PBS-Tween 20 (PBS with 0.05% nonionic detergent Tween-20 Sigma, St. Louis Mo.) and 100 μl/well was added and incubated overnight at 4° C. (plasma dilutions are tested in duplicate). The second antibody (biotinylated goat anti-Human IgE, 1:1000, Kirkegaard & Perry Laboratories Inc. Gaithersburg, Md.), was added at 100 μl/well for one hour at room temperature. This solution was removed and streptavidin-HRPO, 1:10,000 (Southern Biotechnology Associates, Inc., Birmingham, Ala.) was then added at 100 μl/well for one hour at room temperature (all wells were washed three times with PBS-Tween between each incubation step). TMB Membrane Peroxidase Substrate system (Kirkegaard & Perry Laboratories) was freshly mixed, and added at 100 μl/well. The color was allowed to develop for 2-5 minutes. The reaction was stopped by the addition of 100 μl/well of 1M phosphoric acid. Plates were read on a Microplate EL 310 Autoreader (Biotek Instruments, Winooski, Vt.) with a 450 nm filter. The absorbance levels of duplicate wells were averaged.

| IgE binding (IgE) | IgE binding, ELISA (human IgE [2]) | Molecule | T cell reactivity (T cell) | IgE binding, Western immunoblot (human IgE [1]) |
| --- | --- | --- | --- | --- |
| markedly reduced IgE binding | – | mild alkali treated TRFP: mild alkali treated TRFP | maintains T cell reactivity | – |
| markedly reduced IgE binding | – | recombinant chain 1 of TRFP in a dimeric form: recombinant chain 1 of TRFP in a dimeric form | maintains T cell reactivity | – |
| – | clear reactivity with IgE | peptide ZXY: recombinant peptide: peptide Z, peptide X and peptide Y linked in this order (protein) MGHHHHHHEFFFAVANGNELLLDLSLTKVNATEPERKRDVDLFLTGTPDEYVEQVAQYKALPVVLENARILKNCVDAKMTEEDKE | – | show IgE binding |
